From patent US6020521A, “Macrolide LHRH antagonists” (Abbott Laboratories, priority 1998, dated 2000)

Target: T1, LHRH rat pituitary receptor (Rattus norvegicus, UniProt P30969)
T1 construct: from tissue; host or cells: rat pituitary
T1 sequence (P30969 1-327): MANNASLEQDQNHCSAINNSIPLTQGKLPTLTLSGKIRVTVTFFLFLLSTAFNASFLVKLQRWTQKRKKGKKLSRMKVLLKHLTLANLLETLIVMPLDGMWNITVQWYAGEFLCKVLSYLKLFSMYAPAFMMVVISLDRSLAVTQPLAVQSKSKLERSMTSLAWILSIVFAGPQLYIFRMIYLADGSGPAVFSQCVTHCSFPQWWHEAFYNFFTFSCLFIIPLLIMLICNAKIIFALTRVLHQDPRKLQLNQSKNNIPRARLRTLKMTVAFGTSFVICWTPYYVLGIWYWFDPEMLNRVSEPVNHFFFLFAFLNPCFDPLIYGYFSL
Test: LHRH rat pituitary receptor binding (pKI)
Conditions: receptor binding affinity, negative logarithm of the equilibrium dissociation constants
Protocol: Representative compounds of the present invention were evaluated in in vitro tests for LHRH rat pituitary receptor binding (pKI) and for LH inhibition from rat pituitary cells for antagonist potency (pA2). The tests employed the methods detailed in F. Haviv, et al. J. Med. Chem., 32: 2340-2344 (1989). The receptor binding affinity (pKI) is the negative logarithm of the equilibrium dissociation constants.

Ki: 0.166 nM
Compound: CC[C@H]1OC(=O)[C@H](C)[C@@H](OC(=O)N2C(=O)OC[C@@H]2C)[C@H](C)[C@@H](O[C@@H]2O[C@H](C)C[C@H](N(C)C3CCCCC3)[C@H]2O)[C@](C)(OC)C[C@@H](C)C(=O)[C@H](C)[C@H]2N(CCc3ccc(Cl)cc3)C(=O)O[C@]12C [Example 26, 11-Deoxy-11-[carboxy(4-chlorophenethyl)amino]-3-O-[4-(S)-methyl-oxazolidin-2-one]carbamoyl-5-O-(3'-N-desmethyl-3'-N-cyclohexyl)desosaminyl-6-O-methyl-erythronolide A 11,12-(cyclic carbamate)]
